Test results published in ChEMBL document CHEMBL1134422, “Synthesis and bioactivities of novel 5,6-bis(4-methoxyphenyl)-2H-pyridazin-3-one derivatives: inhibitors of interleukin-1 beta (IL-1beta) production” (Bioorg Med Chem Lett, 2001).

What was measured:
HL-60 = test: Inhibitory concentration against interleukin-1 beta production in HL-60 cells stimulated with lipopolysaccharide (LPS).; type: functional, cell-based; details: Homo sapiens
[1] = Pharmacokinetic property (t1/2) in rat; type: ADME, organism-based; details: in vivo
Rattus norvegicus = species on record: Rattus norvegicus; test: Pharmacokinetic property (AUC) in rat; type: ADME, organism-based; details: in vivo
[2] = Pharmacokinetic property (Tmax) in rat; type: ADME, organism-based; details: in vivo
[3] = Pharmacokinetic property (Cmax) in rat; type: ADME, organism-based; details: in vivo

Structure (SMILES)	IC50 (HL-60)	other results
COc1ccc(-c2cc(=O)n(C/C=C/c3ccc(F)cc3)nc2-c2ccc(OC)cc2)cc1	170 nM	
COc1ccc(-c2cc(=O)n(Cc3c(Cl)cc(Cl)cc3Cl)nc2-c2ccc(OC)cc2)cc1	9400 nM	
COc1ccc(-c2cc(=O)n(C(C)C)nc2-c2ccc(OC)cc2)cc1	1320 nM	
C=CCn1nc(-c2ccc(OC)cc2)c(-c2ccc(OC)cc2)cc1=O	> 100000 nM	
COc1ccc(-c2cc(=O)n(Cc3ccc(F)cc3)nc2-c2ccc(OC)cc2)cc1	150 nM	
COc1ccc(-c2cc(=O)n(Cc3ccccn3)nc2-c2ccc(OC)cc2)cc1	1480 nM	
COc1ccc(-c2cc(=O)n(Cc3ccccc3)nc2-c2ccc(OC)cc2)cc1	260 nM	
COc1ccc(-c2cc(=O)n(Cc3ccc(Cl)cc3)nc2-c2ccc(OC)cc2)cc1	530 nM	
COc1ccc(-c2cc(=O)n(Cc3ccc(Cl)c(Cl)c3)nc2-c2ccc(OC)cc2)cc1	210 nM	
COc1ccc(-c2cc(=O)n(C/C=C/c3ccc(F)cc3F)nc2-c2ccc(OC)cc2)cc1	100 nM	
COc1ccc(-c2cc(=O)n(Cc3c(Cl)cccc3Cl)nc2-c2ccc(OC)cc2)cc1	3160 nM	
COc1ccc(-c2cc(=O)n(CC3CCCC3)nc2-c2ccc(OC)cc2)cc1	110 nM	
COc1ccc(-c2cc(=O)n(CC(C)C)nc2-c2ccc(OC)cc2)cc1	> 100000 nM	
COc1ccc(-c2cc(=O)n(Cc3ccc(F)cc3F)nc2-c2ccc(OC)cc2)cc1	180 nM	
COc1ccc(-c2cc(=O)n(C3CCCC3)nc2-c2ccc(OC)cc2)cc1	510 nM	
COc1ccc(-c2cc(=O)n(C/C=C/c3ccccc3)nc2-c2ccc(OC)cc2)cc1	620 nM	
COc1ccc(-c2cc(=O)n(Cc3cccnc3)nc2-c2ccc(OC)cc2)cc1	430 nM	
COc1ccc(-c2cc(=O)n(Cc3ccc(Cl)cc3Cl)nc2-c2ccc(OC)cc2)cc1	1100 nM	

Further compounds by falling IC50 (HL-60), results first:

IC50 (HL-60)	Structure (SMILES)	other results
31600 nM	COc1ccc(-c2cc(O)nnc2-c2ccc(OC)cc2)cc1	
7980 nM	COc1ccc(-c2cc(=O)n(C3CC3)nc2-c2ccc(OC)cc2)cc1	
1800 nM	COc1ccc(-c2cc(=O)n(CC3CC3)nc2-c2ccc(OC)cc2)cc1	
1130 nM	COc1ccc(-c2cc(=O)n(C)nc2-c2ccc(OC)cc2)cc1	
610 nM	CCn1nc(-c2ccc(OC)cc2)c(-c2ccc(OC)cc2)cc1=O	
540 nM	COc1ccc(-c2cc(=O)n(Cc3ccc(F)c(F)c3)nc2-c2ccc(OC)cc2)cc1	
520 nM	COc1ccc(-c2cc(=O)n(Cc3ccncc3)nc2-c2ccc(OC)cc2)cc1	
270 nM	COc1ccc(-c2cc(=O)n(C/C=C/c3ccc(Cl)cc3Cl)nc2-c2ccc(OC)cc2)cc1	
100 nM	COc1ccc(-c2cc(=O)n(C/C=C/c3ccc(Cl)cc3)nc2-c2ccc(OC)cc2)cc1	half-life [1]: 4.9 h; AUC (Rattus norvegicus): 3900 ng·h/mL; Tmax [2]: 7 h; Cmax [3]: 316 ng/mL
